Several values for one entry are separate records, joined by “and”; a condition that tells them apart may be missing. Identical values can stand only once. Like-named read-outs stand apart in the source and are kept apart here.
How the values were obtained:
SW982 synoviocytes = assay: cellular arachidonic acid (AA) release assay, IL-1β stimulated; format: cell-based, human; details: for inhibition at 5 µM: SW982, 5 µM; for EC50 / IC50: SW982; for IC50: concentration in µM, read-out: logEC50 best-fit value, AA release (converted)
Source text: To test the inhibitory activity of the compounds in cells, we measured their effect on the release of AA from synoviocytes stimulated with IL-1β (Table 2). […] Combined with favorable selectivity and stability it was thus chosen for further evaluation. We looked specifically at how it modulated eicosanoid levels in response to stimulation both in whole blood and in isolated peripheral blood mononuclear cells (PBMCs) and checked for off-target effects on AA metabolism in whole blood by also measuring the effect of GK420 on eicosanoid release in the presence of exogenous free AA.
The human synovial sarcoma cell line SW982 (ATCC, London, UK) was used to measure AA release. The cells were maintained in Dulbecco’s Modified Eagle Medium (DMEM) supplemented with 10% FBS, 0.1 mg/mL gentamicin, and 0.3 mg/mL L-glutamine at 37 °C with 10% CO2, and experiments were performed at 3 days post-confluence. To measure AA release, the cells were labeled overnight with ^3H-AA (0.4 μCi/mL) in serum-free DMEM and then washed twice with PBS containing fBSA (2 mg/mL) to remove unincorporated radioactivity. The inhibitors, or DMSO vehicle control, were subsequently added to the cells for 1 hour prior to stimulation with 10 ng/mL IL-1β for 4 h. Supernatants were collected and centrifuged at 300 × g for 5 min to clear them of detached cells and adherent cells were dissolved in 1 N NaOH. The ^3H-AA was assessed by liquid scintillation counting (LS 6500 Multi-Purpose Scintillation Counter, Beckman Coulter, Inc., USA) and the results are given as the inhibition of released ^3H-AA in the supernatants relative to total ^3H-AA incorporated into the cells, as described. EC50 values were calculated by fitting the % inhibition data to a three-parameter dose-response curve in GraphPad prism v10.4.0. Experiments were performed in technical triplicates and repeated at least three times.

[1] = target: T1, human calcium-independent GVIA iPLA2 (Homo sapiens, UniProt O60733); assay: radioactivity-based mixed micelle assay, GVIA iPLA2; format: biochemical
T1 sequence (O60733 1-806): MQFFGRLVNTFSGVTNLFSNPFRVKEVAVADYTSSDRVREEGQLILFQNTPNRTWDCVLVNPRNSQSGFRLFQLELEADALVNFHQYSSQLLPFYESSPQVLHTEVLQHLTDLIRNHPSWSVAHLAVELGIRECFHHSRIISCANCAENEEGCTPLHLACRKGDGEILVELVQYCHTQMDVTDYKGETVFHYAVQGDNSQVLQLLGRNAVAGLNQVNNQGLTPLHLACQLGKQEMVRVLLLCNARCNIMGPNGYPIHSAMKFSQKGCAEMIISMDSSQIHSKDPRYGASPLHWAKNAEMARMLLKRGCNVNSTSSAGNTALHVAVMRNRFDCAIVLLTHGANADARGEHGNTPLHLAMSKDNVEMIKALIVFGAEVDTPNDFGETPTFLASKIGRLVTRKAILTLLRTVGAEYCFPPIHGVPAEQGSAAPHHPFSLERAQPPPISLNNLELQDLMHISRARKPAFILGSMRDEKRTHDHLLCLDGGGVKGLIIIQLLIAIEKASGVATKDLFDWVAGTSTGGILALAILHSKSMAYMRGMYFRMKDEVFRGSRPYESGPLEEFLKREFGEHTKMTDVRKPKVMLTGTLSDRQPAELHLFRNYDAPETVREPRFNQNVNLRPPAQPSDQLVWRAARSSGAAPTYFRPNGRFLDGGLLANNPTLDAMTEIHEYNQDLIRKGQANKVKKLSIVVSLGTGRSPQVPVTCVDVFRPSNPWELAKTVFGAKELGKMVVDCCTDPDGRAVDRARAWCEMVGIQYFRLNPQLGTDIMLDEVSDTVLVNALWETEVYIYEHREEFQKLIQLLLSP
Protocol: (§1) All synthesized thiazolyl ketones were tested for their in vitro inhibitory activity on recombinant human cPLA2α and selectivity over human calcium-independent GVIA iPLA2 and secreted GV sPLA2 using our previously described group-specific radioactivity-based mixed micelle assays. The inhibition results are presented either as per cent inhibition or as XI(50) values in Table 1. […] The XI(50) is defined as the mole fraction of the inhibitor in the total substrate interface required to inhibit the enzyme activity by 50%. For comparison purposes, previously published data for the inhibitor GK470[19] are included. […] Inhibitors were initially screened at 0.091 mol fraction (5 μL of 5 mM inhibitor in DMSO) in substrate (495 μL) in technical triplicates. […] The XI(50) value and stdev values reported are for the entire curve. This analysis was performed in GraphPad Prism v6.

secreted GV sPLA2 = target: T2, secreted GV sPLA2 (Homo sapiens, UniProt P39877); assay: radioactivity-based mixed micelle assay, GV sPLA2; format: biochemical
T2 sequence (P39877 21-138): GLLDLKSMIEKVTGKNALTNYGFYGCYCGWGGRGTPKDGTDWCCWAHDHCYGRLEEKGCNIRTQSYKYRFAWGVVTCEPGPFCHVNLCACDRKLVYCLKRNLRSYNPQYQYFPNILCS
Protocol: as §1

[2] = 0.2 µM, individual biological replicate
[3] = 1 µM, individual biological replicate
[4] = 5 µM, individual biological replicate
[5] = Homo sapiens, SW982, 1 µM, individual biological replicate, read-out: % inhibition of stimulated AA release
[6] = Homo sapiens, individual biological replicate
[7] = Homo sapiens, SW982, 4 h, 1 µM inhibitor, IL-1β 4 h, mean ± stdev, read-out: AA release % Inhib
[8] = Homo sapiens, IL-1β 4 h, 0.2, 1 or 5 µM inhibitor, read-out: AA release EC50 µM (95% CI)
[9] = Homo sapiens, [Agonist] vs. Response (three parameters)
[10] = Homo sapiens, [Agonist] vs. Response (three parameters), read-out: EC50 best-fit value, AA release
[11] = 0.091 mole fraction, read-out: GVIA iPLA2 % Inhib
[12] = average of triplicates, read-out: iPLA2 % inhibition at 0.091 mole fraction, average
[13] = individual technical replicate, read-out: iPLA2 % inhibition at 0.091 mole fraction
[14] = 0.091 mole fraction, read-out: GV sPLA2 % Inhib
[15] = average of triplicates, read-out: sPLA2 % inhibition at 0.091 mole fraction, average
[16] = individual technical replicate, read-out: sPLA2 % inhibition at 0.091 mole fraction

CCCCCCCCc1ccc(OCC(=O)c2nc(C(=O)OCC)cs2)cc1 [GK401]
% inhibition of stimulated AA release (SW982 synoviocytes; [2]): 23.49% and 44.31% and 23.09% and 42.93%
% inhibition of stimulated AA release (SW982 synoviocytes; [3]): 46.19% and 56.11% and 60.73%
% inhibition of stimulated AA release (SW982 synoviocytes; [4]): 83.12% and 89.8% and 99.4%
inhibition at 1 µM (SW982 synoviocytes; [5]): 49.8%
inhibition at 5 µM (SW982 synoviocytes; [6]): 92.1%
inhibition at 1 µM (SW982 synoviocytes; [7]): 53 ± 6%
EC50 (SW982 synoviocytes; [8]): 0.63 µM
IC50 (SW982 synoviocytes; [9]): 0.63 µM
EC50 (SW982 synoviocytes; [10]): 0.63 µM
inhibition at 0.091 mole fraction [1, 11]: 40%
inhibition at 0.091 mole fraction [1, 12]: 39.8%
inhibition at 0.091 mole fraction [1, 13]: 41.2%
inhibition at 0.091 mole fraction (secreted GV sPLA2; [14]): 46%
inhibition at 0.091 mole fraction (secreted GV sPLA2; [15]): 46.1%
inhibition at 0.091 mole fraction (secreted GV sPLA2; [16]): 45.9%

CCCCCCCCc1ccc(OC(C)C(=O)c2nc(C(=O)OC)cs2)cc1 (stereo not shown) [GK402]
% inhibition of stimulated AA release (SW982 synoviocytes; [2]): 6.56% and 7.69% and 18.19%
% inhibition of stimulated AA release (SW982 synoviocytes; [3]): 17.63% and 31.62%
% inhibition of stimulated AA release (SW982 synoviocytes; [4]): 31.01% and 44.57%
inhibition at 1 µM (SW982 synoviocytes; [5]): 18.5%
inhibition at 5 µM (SW982 synoviocytes; [6]): 36.7%
inhibition at 1 µM (SW982 synoviocytes; [7]): 23 ± 8%
EC50 (SW982 synoviocytes; [8]): 6.7 µM
IC50 (SW982 synoviocytes; [9]): 6.7 µM
EC50 (SW982 synoviocytes; [10]): 6.7 µM
inhibition at 0.091 mole fraction [1, 11]: 61%
inhibition at 0.091 mole fraction [1, 12]: 60.8%
inhibition at 0.091 mole fraction [1, 13]: 59.9%
inhibition at 0.091 mole fraction (secreted GV sPLA2; [14]): 50%
inhibition at 0.091 mole fraction (secreted GV sPLA2; [15]): 49.5%
inhibition at 0.091 mole fraction (secreted GV sPLA2; [16]): 50.4%

COC(=O)c1csc(C(=O)COc2ccc(Oc3ccccc3)cc2)n1 [GK403]
% inhibition of stimulated AA release (SW982 synoviocytes; [2]): 11.19% and -0.79% and 22.56% and 22.92%
% inhibition of stimulated AA release (SW982 synoviocytes; [3]): 71.06% and 44.35% and 48.83% and 61.77%
% inhibition of stimulated AA release (SW982 synoviocytes; [4]): 83.19% and 96.79% and 91.92%
inhibition at 5 µM (SW982 synoviocytes; [6]): 101%
inhibition at 1 µM (SW982 synoviocytes; [7]): 57 ± 12%
EC50 (SW982 synoviocytes; [8]): 0.79 µM
IC50 (SW982 synoviocytes; [9]): 0.793 µM
EC50 (SW982 synoviocytes; [10]): 0.793 µM
inhibition at 0.091 mole fraction [1, 11]: 34%
inhibition at 0.091 mole fraction [1, 12]: 34.3%
inhibition at 0.091 mole fraction [1, 13]: 33.6%
inhibition at 0.091 mole fraction (secreted GV sPLA2; [14]): 32%
inhibition at 0.091 mole fraction (secreted GV sPLA2; [16]): 27.6%

CCCCCCOc1ccc(SCC(=O)c2nc(C(=O)OC)cs2)cc1 [GK419]
% inhibition of stimulated AA release (SW982 synoviocytes; [2]): 23.74% and 36.06% and 29.89% and 8.79%
% inhibition of stimulated AA release (SW982 synoviocytes; [3]): 51.4% and 93.19% and 85.38% and 54.33%
% inhibition of stimulated AA release (SW982 synoviocytes; [4]): 98.65% and 99.61% and 98.35% and 63.6%
inhibition at 1 µM (SW982 synoviocytes; [7]): 71 ± 21%
EC50 (SW982 synoviocytes; [8]): 0.5 µM
IC50 (SW982 synoviocytes; [9]): 0.495 µM
EC50 (SW982 synoviocytes; [10]): 0.495 µM
inhibition at 0.091 mole fraction [1, 11]: 0%
inhibition at 0.091 mole fraction [1, 12]: 0%
inhibition at 0.091 mole fraction [1, 13]: 0%
inhibition at 0.091 mole fraction (secreted GV sPLA2; [14]): 29%
inhibition at 0.091 mole fraction (secreted GV sPLA2; [15]): 29.2%
inhibition at 0.091 mole fraction (secreted GV sPLA2; [16]): 33.4%

CCCCCCCOc1ccc(OCC(=O)c2nc(C(=O)OC)cs2)cc1 [GK420]
% inhibition of stimulated AA release (SW982 synoviocytes; [2]): 55.97% and 44.95% and 68.85% and 89.01%
% inhibition of stimulated AA release (SW982 synoviocytes; [3]): 102.49% and 78.04% and 96.65% and 110.97%
% inhibition of stimulated AA release (SW982 synoviocytes; [4]): 103.28% and 116.15% and 112.68%
inhibition at 5 µM (SW982 synoviocytes; [6]): 119%
inhibition at 1 µM (SW982 synoviocytes; [7]): 97 ± 14%
EC50 (SW982 synoviocytes; [8]): 0.09 µM
IC50 (SW982 synoviocytes; [9]): 0.0942 µM
EC50 (SW982 synoviocytes; [10]): 0.0943 µM
inhibition at 0.091 mole fraction [1, 11]: 0%
inhibition at 0.091 mole fraction [1, 12]: 0%
inhibition at 0.091 mole fraction [1, 13]: 0%
inhibition at 0.091 mole fraction (secreted GV sPLA2; [14]): 46%
inhibition at 0.091 mole fraction (secreted GV sPLA2; [15]): 46.4%
inhibition at 0.091 mole fraction (secreted GV sPLA2; [16]): 48.2%

CCCCCCSc1ccc(OCC(=O)c2nc(C(=O)OC)cs2)cc1 [GK427]
% inhibition of stimulated AA release (SW982 synoviocytes; [2]): 24.46% and 29.82% and 29.25%
% inhibition of stimulated AA release (SW982 synoviocytes; [3]): 49.86% and 62.69%
% inhibition of stimulated AA release (SW982 synoviocytes; [4]): 90.15% and 92.25% and 90.43%
inhibition at 0.2 µM (SW982 synoviocytes; Homo sapiens, SW982, 0.2 µM, individual biological replicate): 26.4%
inhibition at 1 µM (SW982 synoviocytes; [5]): 55.8%
inhibition at 5 µM (SW982 synoviocytes; [6]): 84%
inhibition at 1 µM (SW982 synoviocytes; [7]): 56 ± 5%
EC50 (SW982 synoviocytes; [8]): 0.67 µM
IC50 (SW982 synoviocytes; [9]): 0.671 µM
EC50 (SW982 synoviocytes; [10]): 0.671 µM
inhibition at 0.091 mole fraction [1, 11]: 7.5%
inhibition at 0.091 mole fraction [1, 12]: 7.5%
inhibition at 0.091 mole fraction (secreted GV sPLA2; [14]): 44%
inhibition at 0.091 mole fraction (secreted GV sPLA2; [15]): 43.6%
inhibition at 0.091 mole fraction (secreted GV sPLA2; [16]): 39.7%

CCCCCCCCc1ccc(OCC(=O)c2nc(C(=O)OC)cs2)cc1 [GK470]
% inhibition of stimulated AA release (SW982 synoviocytes; [2]): 11.2% and 24.55% and 57.46% and 50.18%
% inhibition of stimulated AA release (SW982 synoviocytes; [3]): 71.51% and 64.93% and 67.46%
% inhibition of stimulated AA release (SW982 synoviocytes; [4]): 105% and 107.21% and 94.17%
inhibition at 1 µM (SW982 synoviocytes; [5]): 62.7%
inhibition at 5 µM (SW982 synoviocytes; [6]): 110%
inhibition at 1 µM (SW982 synoviocytes; [7]): 67 ± 4%
EC50 (SW982 synoviocytes; [8]): 0.38 µM
IC50 (SW982 synoviocytes; [9]): 0.385 µM
EC50 (SW982 synoviocytes; [10]): 0.385 µM
